# According to US20240226160A9, “ACTIVITY-INDUCIBLE FUSION PROTEINS HAVING A HEAT SHOCK PROTEIN 90 BINDING DOMAIN” (Seattle Children's Hospital d/b/a Seattle Children's …, priority 2021, published 2024):
# Residue numbers refer to the chain shown, from its start.
# Key:
# huCD19CAR-EBD(4OHT) = assay: Anti-CD3zeta western blot with band quantification; format: cell-based; settings: 500 nM, 24 hr incubation, vs 0 nM
# Description: FIG. 26. Anti-zeta Western Blot evaluating huCD19CAR-EBD(4OHT) with differing Glycine linkers in 0 nM and 500 nM of 4OHT OR (Z)-endoxifen. Protein processing and expression of huCD19CAR-EBD with different linkers between the CAR and the EBD was evaluated using an anti-CD3zeta western blot analysis. Whole cell lysates were made for the huCD19CAR-EBD(4OHT) T cell lines with either a 1Glycline, 2Glycine or 3Glycine linker between the CAR and EBD domains in 0 nM and 500 nM 4OHT/(Z)-endoxifen drug conditions following a 24 hr incubation. Whole cell lysates were also made for the Mock T cell line and the CAR alone T cell line under the same conditions. The western blot was imaged and analyzed on the LiCOR Odyssey. Additionally, protein band quantification was performed using the LiCOR Odyssey. CAR zeta chain expression is observed for all CAR-1/2/3Glylinker-EBD lines in both the no drug and maximum drug conditions.
# B7H3CAR-3Gly-EBD(4OHT) [1] = biological target: T1, B7H3CAR-3Gly-EBD(4OHT) (Homo sapiens, UniProt P03372, G400V/L544A/M543A); assay: Chromium release assay, specific cell lysis; format: cell-based
# T1 construct: expressed in transfected cells; T cells by b52 and b55
# T1 sequence (P03372 282-595 G400V/M543A/L544A): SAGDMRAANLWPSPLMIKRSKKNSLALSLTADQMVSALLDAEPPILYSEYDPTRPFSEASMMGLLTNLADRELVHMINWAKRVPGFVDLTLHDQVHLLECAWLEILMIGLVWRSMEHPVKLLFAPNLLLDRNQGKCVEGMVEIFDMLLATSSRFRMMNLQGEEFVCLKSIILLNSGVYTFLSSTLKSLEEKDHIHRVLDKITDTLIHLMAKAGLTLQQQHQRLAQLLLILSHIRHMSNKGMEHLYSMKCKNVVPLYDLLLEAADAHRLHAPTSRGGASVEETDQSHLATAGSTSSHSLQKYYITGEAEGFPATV
# Description: FIG. 18. […] Specific cell lysis was evaluated using a chromium release assay. […] Following the 4 hr incubation the Perkin Elmer TopCount was used to quantify the amount of Cr51 released into each well as tumor lysis occurred.
# B7H3CAR-3Gly-EBD(4OHT) [2] = biological target: T1, B7H3CAR-3Gly-EBD(4OHT); assay: Meso Scale Diagnostic cytokine release assay; format: cell-based; settings: 24 hr drug culture 0-500 nM, 24 hr co-incubation with tumor lines
# Description: FIGS. 19A, 19B. […] (20A and 20B) Cytokine release was evaluated using a Meso Scale Diagnostic assay. […] Following the 24 hr incubation the supernatant from each co-incubation was collected and run on the MESO QuickPlex SQ 120 instrument to ascertain the amount of cytokine released.
# EBD(ES8) = biological target: T2, EBD(ES8) (Homo sapiens, UniProt P03372, E353A); assay: CD107a activation assay (flow cytometry MFI); format: cell-based; settings: for CD107a response of EBD(ES8) to drug: 24 hr preconditioning, 4 hours co-culture
# T2 sequence (P03372 282-595 E353A): T1 sequence (P03372 282-595 G400V/M543A/L544A) with E72A, V119G, A262M, A263L
# Description: FIGS. 28A, 28B. (28A) CD107a activation assay: huCD19CAR-EBD(4OHT) linker variants vs K562+CD19t. […] To achieve this, T cells (including mock and constitutively active CAR controls) were preconditioned with target drug concentration(s) for 24 hrs, then exposed to a tumor line expressing their target antigen (CD19 or B7H3). After 4 hours of co-culture with target tumors at various drug concentrations, the T cells were assessed for a) activation and degranulation by staining for CD107a and b) cell surface CAR-EBD by staining for human scFv (which works for both B7H3CAR and huCD19CAR), then running on flow cytometry. MFI (median fluorescence intensity) was determined for each stain on each sample under each condition and plotted on a log scale of drug concentration. EC10 and EC90 (effective concentration 10% and 90%) were calculated in Graphpad Prism for CD107a expression and function as estimates for the drug concentration required for each construct to turn “on” or “off”. Positive and negative controls for each CAR are presented in the bar graph. […] EBD(4OHT) responds to 4-OHT and (Z)-endoxifen, but not to CMP8 or ES8. The responsiveness of degranulation to target antigen in the presence of inducer molecule is largely similar between the Gly linker variants. EBD(4OHT) is very sensitive to its intended inducer molecules, beginning to activate (EC10) at single nanomolar concentrations and becoming fully activated (EC90) at double digit nanomolar concentrations. […] Both EBD(CMP8) and EBD(ES8) respond to 4OHT.
# B7H3 EBD(CMP8) CAR = biological target: T3, B7H3 EBD(CMP8) CAR (Homo sapiens, UniProt P03372, G521R/L384M/M421G); assay: Jurkat iSynPro eGFP:ffluc reporter assay (GFP by flow cytometry); format: cell-based
# T3 construct: expressed in transfected cells; host or cells: clonal Jurkat iSynPro eGFP:ffluc reporter cell line (transduced)
# T3 sequence (P03372 282-595 L384M/M421G/G521R): T1 sequence (P03372 282-595 G400V/M543A/L544A) with L103M, V119G, M140G, G240R, A262M, A263L
# Description: FIG. 11. Design of B7H3 CAR EBD mutant study. […] Jurkat iSynPro lines included cJ10792: Jurkat iSynPro-GFP:ffluc; cJ13093: Jurkat iSynPro-GFP:ffluc+B7H3 CAR; cJ13094: Jurkat iSynPro-GFP:ffluc+B7H3 CAR EBD (4-OHT); and cJ13095: Jurkat iSynPro-GFP:ffluc+B7H3 CAR EBD (CMP8) with a K562 parental target. 4-OHT and CMP8 concentrations of 0 nM, 500 nM and 1000 nM were tested for each cell line.
# FIG. 16. Design of activation curve study. The objective of the study was to examine activation curves of CAR EBD Jurkat iSynPro lines in an increasing presence of 4-OHT, (Z)-endoxifen, or CMP8.
# FIG. 9 (top) depicts a schematic of Jurkat iSynPro eGFP:ffluc reporter cells. Jurkat iSynPro eGFP:ffluc reporter cells feature a Jurkat cell line lentivirally transduced to stably express a inducible synthetic promoter (iSynPro WO2018213332A1) regulating the expression of an enhanced green fluorescent protein (eGFP) fused to bioluminescent reporter firefly luciferase (ffluc). This line was then clonally selected by limiting dilution. […]
# Jurkat iSynPro eGFP:ffluc assays are also depicted in FIG. 9 (bottom). […] At the 24 hr timepoint, cells were collected and evaluated by flow cytometry. Cells were initially stained for CD33 to gate out target cell lines before they were evaluated for GFP expression by positivity and/or mean fluorescence intensity (MFI). […]
# [3] = biological target: T4, B7H3CAR-3Gly-EBD variants (Homo sapiens, UniProt P03372, G521R/L384M/M421G); settings: B7H3CAR-3Gly-EBD(CMP8) vs K562+mCherry, drug added at 24 hrs
# T4 sequence (P03372 282-595 L384M/M421G/G521R): T1 sequence (P03372 282-595 G400V/M543A/L544A) with L103M, V119G, M140G, G240R, A262M, A263L
# Description: (31A) Incucyte Cytotoxicity Assay: B7H3CAR-3Gly-EBD variants. CD4 and CD8 T cells (mixed at a 1:1 ratio) expressing a either B7H3CAR-3Gly-EBD(4OHT), B7H3CAR-3Gly-EBD(CMP8), or B7H3CAR-3Gly-EBD(ES8) were either preincubated for 24 hrs with 500 nM inducer drug or not preincubated. These T cells were subsequently plated with CAR-target expressing tumor lines (K562, and/or Be2) constitutively expressing mCherry (for detection and quantification). […] Plates were placed inside of an Incucyte and imaged every 3-4 hours for several days. mCherry signal was then quantified and plotted as a function of time. […]
# (32A-32C) CD4 and CD8 T cells (mixed at a 1:1 ratio) expressing either B7H3CAR-3Gly-EBD(4OHT), B7H3CAR-3Gly-EBD(CMP8), or B7H3CAR-3Gly-EBD(ES8) (were either preincubated for 24 hrs with 500 nM inducer drug or not preincubated (B7H3CAR-3Gly-EBD(4OHT) received 500 nM 4OHT, B7H3CAR-3Gly-EBD(CMP8) received 500 nM CMP8, B7H3CAR-3Gly-EBD(ES8) received 500 nM ES8). These T cells were subsequently plated with CAR-target expressing tumor lines (K562, and/or Be2) constitutively expressing mCherry (for detection and quantification). Tumors were plated at 10,000 per well, and co-culture was performed at a 4:1 ratio (T cell:tumor cell) with or without the appropriate drug at 500 nM. […]
compound,measurement,setting,value
CC/C(=C(\c1ccc(O)cc1)c1ccc(OCCNC)cc1)c1ccccc1 [(Z)-endoxifen],increase in CAR-EBD protein expression (zeta chain band quantification),huCD19CAR-EBD(4OHT),~3 fold
"CC/C(=C(\c1ccc(O)cc1)c1ccc(OCCN(C)C)cc1)c1ccccc1 [4-OHT, 4-hydroxytamoxifen]",increase in CAR-EBD protein expression (zeta chain band quantification),huCD19CAR-EBD(4OHT),~3 fold
O=C1CCC2(Cc3ccc(Cl)cc3)Cc3cc(O)ccc3C2=C1c1ccc(OCCN2CCCCC2)cc1 (centres unmarked) [CMP8],specific lysis,B7H3CAR-3Gly-EBD(4OHT) [1]; 500 nM,0%
same,regulation of CAR activity (specific cell lysis),"B7H3CAR-3Gly-EBD(4OHT) [1]; 24 hr drug culture 0-500 nM, 4 hr co-incubation with Cr-51 tumor line",is not regulated by
same,regulation of CAR activity (cytokine release),B7H3CAR-3Gly-EBD(4OHT) [2],is not regulated by
same,CD107a response of EBD(ES8) to drug,EBD(ES8),does not respond to
same,induction of expression at lowest drug level,B7H3 EBD(CMP8) CAR; 0.49 nM of drug,still observed
same,response of EBD(CMP8) mutant (GFP induction),"B7H3 EBD(CMP8) CAR; K562 target, 24 hr",response
same,change in tumor growth kinetics once activated,[3],immediate
C[C@]12CC[C@@H]3c4ccc(/C=C/C(=O)O)cc4CC[C@H]3[C@@H]1CC[C@@H]2O [ES8],CD107a response of EBD(ES8) to drug,EBD(ES8),very sensitive to induction
same,maximum magnitude of induction,EBD(ES8); CD107a,less than its induction with 4OHT
